According to patent US20240199630A1, “IMIDAZO[1,2-B]PYRIDAZINE BASED TRICYCLIC COMPOUNDS AS INHIBITORS OF HASPIN AND THERAPEUTIC USES THEREOF” (FUNDACIÓN DEL SECTOR PÚBLICO ESTATAL CENTRO NACIONAL DE …, priority 2021, published 2024):

Biological target: PIM1 (Homo sapiens (Human), UniProt P11309)
Assay: PIM1 activity, methodology of WO2013/005041
Format: biochemical
Conditions: compounds from the present invention

Chain of PIM1 (P11309 whole entry, species assumed): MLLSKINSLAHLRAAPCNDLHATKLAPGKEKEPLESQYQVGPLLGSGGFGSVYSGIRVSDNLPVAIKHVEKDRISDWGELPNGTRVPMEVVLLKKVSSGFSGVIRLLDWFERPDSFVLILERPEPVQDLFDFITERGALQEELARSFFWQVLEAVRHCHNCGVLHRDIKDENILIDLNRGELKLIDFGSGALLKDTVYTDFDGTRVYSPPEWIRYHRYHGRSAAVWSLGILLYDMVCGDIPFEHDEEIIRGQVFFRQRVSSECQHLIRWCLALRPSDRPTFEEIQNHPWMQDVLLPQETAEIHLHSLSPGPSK

Point of comparison: Cc1nc2c3c(c(NCC4(F)CCNCC4)nn2c1-c1ccncc1)CCCO3 [Compound 6, (4-Fluoro-piperidin-4-ylmethyl)-(2-methyl-3-pyridin-4-yl-7,8-dihydro-6H-9-oxa-1,3a,4-triaza-cyclopenta[a]naphthalen-5-yl)-amine], IC50 3300 nM. Against it:
- Cc1nc2c3c(c(N4CCCC(CN)C4)nn2c1-c1ccnc(Cl)c1)CCCO3 (centres unmarked) [Compound 2, C-{1-[3-(2-Chloro-pyridin-4-yl)-2-methyl-7,8-dihydro-6H-9-oxa-1,3a,4-triaza-cyclopenta[a]naphthalen-5-yl]-piperidin-3-yl}-methylamine] — within 1.5-fold, 3400 nM
- Cc1nc2c3c(c(N[C@H]4CC[C@@](C)(O)CC4)nn2c1-c1ccncc1)OCCN3C [Compound 27, 4-(2,9-Dimethyl-3-pyridin-4-yl-8,9-dihydro-7H-6-oxa-1,3a,4,9-tetraaza-cyclopenta[a]naphthalen-5-ylamino)-1-methyl-cyclohexanol] — within 1.5-fold, 3180 nM
- Cc1nc2c3c(c(N4CCC[C@H](CN)C4)nn2c1-c1ccnc(Cl)c1)CCCO3 [Compound 4, C-{(R)-1-[3-(2-Chloro-pyridin-4-yl)-2-methyl-7,8-dihydro-6H-9-oxa-1,3a,4-triaza-cyclopenta[a]naphthalen-5-yl]-piperidin-3-yl}-methylamine] — within 1.5-fold, 2270 nM
- Cc1nc2c3c(c(NCC4CCNCC4)nn2c1-c1ccnc(Cl)c1)N(C)CCO3 [Compound 10, [3-(2-Chloro-pyridin-4-yl)-2,6-dimethyl-7,8-dihydro-6H-9-oxa-1,3a,4,6-tetraaza-cyclopenta[a]naphthalen-5-yl]-piperidin-4-ylmethyl-amine] — 3-fold lower, 1090 nM
- Cc1nc2c3c(c(N4CCC[C@@H](CN)C4)nn2c1-c1ccnc(Cl)c1)CCCO3 [Compound 3, C-{(S)-1-[3-(2-Chloro-pyridin-4-yl)-2-methyl-7,8-dihydro-6H-9-oxa-1,3a,4-triaza-cyclopenta[a]naphthalen-5-yl]-piperidin-3-yl}-methylamine] — higher, > 10000 nM
- Cc1nc2c3c(c(NCCCCO)nn2c1-c1ccnc(Cl)c1)N(C)CCO3 [Compound 12, 4-[3-(2-Chloro-pyridin-4-yl)-2,6-dimethyl-7,8-dihydro-6H-9-oxa-1,3a,4,6-tetraaza-cyclopenta[a]naphthalen-5-ylamino]-butan-1-ol] — 1.8-fold lower, 1810 nM

Biological target: intracellular HASPIN (phosphorylation of the HASPIN substrate H3T3) (Homo sapiens (Human), UniProt Q8TF76)
Assay: Cellular HASPIN inhibition assay (phosphorylation of H3T3), western blot in MV4:11 cells
Format: cell-based
Conditions: 8 hours of treatment, read-out: pH3T3 EC50
Method: 10 min. The protein content of the lysates is determined by DC protein assay (Biorad, Ref. 5000116).

Chain of intracellular HASPIN (phosphorylation of the HASPIN substrate H3T3) (Q8TF76 whole entry): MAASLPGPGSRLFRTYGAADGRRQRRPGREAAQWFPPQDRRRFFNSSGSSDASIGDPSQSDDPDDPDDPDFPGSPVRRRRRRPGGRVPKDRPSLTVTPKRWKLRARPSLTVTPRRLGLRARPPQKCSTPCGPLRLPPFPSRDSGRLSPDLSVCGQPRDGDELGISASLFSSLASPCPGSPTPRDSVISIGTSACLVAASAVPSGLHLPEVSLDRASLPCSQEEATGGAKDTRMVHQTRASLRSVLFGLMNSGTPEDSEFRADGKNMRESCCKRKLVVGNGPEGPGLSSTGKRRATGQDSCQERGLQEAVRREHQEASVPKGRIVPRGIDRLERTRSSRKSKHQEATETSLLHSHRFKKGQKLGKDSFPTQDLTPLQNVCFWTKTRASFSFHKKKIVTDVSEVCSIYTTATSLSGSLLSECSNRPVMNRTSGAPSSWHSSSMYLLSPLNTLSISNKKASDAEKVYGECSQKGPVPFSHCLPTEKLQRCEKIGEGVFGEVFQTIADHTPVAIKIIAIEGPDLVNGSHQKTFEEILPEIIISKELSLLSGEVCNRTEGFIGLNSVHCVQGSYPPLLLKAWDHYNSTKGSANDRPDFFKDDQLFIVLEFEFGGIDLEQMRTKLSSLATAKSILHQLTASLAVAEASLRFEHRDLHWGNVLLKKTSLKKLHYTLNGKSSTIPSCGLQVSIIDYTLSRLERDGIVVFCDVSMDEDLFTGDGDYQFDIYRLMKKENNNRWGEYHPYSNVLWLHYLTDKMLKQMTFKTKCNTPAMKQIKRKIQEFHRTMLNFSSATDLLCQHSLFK

Cc1nc2c3c(c(NCC4(F)CCNCC4)nn2c1-c1ccnc(Cl)c1)C[C@@H](C)O3 (single isomer, unassigned) [Compound 34] and Cc1nc2c3c(c(NCC4(F)CCNCC4)nn2c1-c1ccnc(Cl)c1)C[C@H](C)O3 (single isomer, unassigned) [Compound 35] cannot be ordered by EC50: less than 50 nM for the first, less than 50 nM for the second.

Biological target: HASPIN (Homo sapiens (Human), UniProt Q8TF76)
Assay: HASPIN biochemical assay (ADP-Glo, HASPIN autophosphorylation)
Conditions: ATP 150 μM, 60 min at 30° C.
Method: HASPIN biochemical Assay: The biochemical assay to measure HASPIN activity relies on the ADP-Glo™ assay kit (Promega) that determines the amount of ADP as direct product of the kinase enzyme activity. Assay conditions were as indicated by the kit manufacturers with the following adaptations for the kinase activity step: Kinase assay buffer and assay volume (15 mM HEPES pH 7.5, 20 mM NaCl, 1 mM EGTA, 0.02% TWEEN 20, 10 mM MgCl2, 0.1 mg/ml BGG)/25 μL assay volume). Incubation time and temperature: 60 min at 30° C. HASPIN final concentration: 0.9 μg/mL. ATP final concentration: 150 μM. HASPIN autophosphorylation was measured. Assays were performed in 384-well plates. The final outcome of the coupled reactions provided by the kit is the release of luciferase and has been measured with a multilabel HTS counter Victor V/Envision. Values were normalized against the control activity included (100% HASPIN activity, without compound). Values were plotted against the inhibitor concentration and fit to a sigmoid dose-response curve using Activity base by IDBS software.

Chain of HASPIN (Q8TF76 whole entry): as above

Point of comparison: Cc1nc2c3c(c(NCC4(F)CCNCC4)nn2c1-c1ccnc(Cl)c1)CC(C)O3 (racemic) [Compound 33, [3-(2-Chloro-pyridin-4-yl)-2,7-dimethyl-6,7-dihydro-8-oxa-1,3a,4-triaza-as-indacen-5-yl]-(4-fluoro-piperidin-4-ylmethyl)-amine], IC50 6.37 nM. Against it:
- Cc1nc2c3c(c(NCC4(F)CCNCC4)nn2c1-c1ccnc(Cl)c1)C[C@@H](C)O3 (single isomer, unassigned) [Compound 34] — within 1.5-fold, 5.87 nM
- Cc1nc2c3c(c(NCC4(F)CCNCC4)nn2c1-c1ccnc(Cl)c1)C[C@H](C)O3 (single isomer, unassigned) [Compound 35] — 3.2-fold higher, 20.7 nM

Tested on: MV4:11 (AML cell line)
Assay: Combination viability assay (CellTiter-Glo), Bliss combination index
Conditions: MV4:11 cell line, 72 h; agent 1 μM combined with compound 3 at 2 μM; CI<1 synergism
Method: The cells were harvested just before reaching confluency, counted with a haemocytometer and diluted with media. Cells were then seeded in 96-well microtiter plates at a density of 5,000 cells/well. Cells were incubated for 24 hours before adding the compounds. Compounds were weighed out and diluted with DMSO to a final concentration of 10 mM. From here a “mother plate” was prepared at 200X the final concentration in the culture. The final concentration of DMSO in the tissue culture media should not exceed 1%. […] Each compound was assayed in duplicate. Cells were exposed to the compounds for 72 h and then processed for CellTiter-Glo® Luminescent Cell Viability Assay (Promega) read out according to manufacturer's Instruction and read on EndVision (Perkin Elmer). Percentage of viability inhibition was calculated using ActivityBase from IDBS. Potential synergy between drugs was evaluated by calculating the combination index (CI) based on the Bliss Independence model, whereby the CI was calculated with the following equation:
where Ea indicates the viability effect of drug A, Eb indicates the viability effect of drug B and Eab indicates the viability effect of the drug combination. CI<1 indicates synergism, CI=1 indicates additivity and CI>1 indicates antagonism.

Point of comparison: CC[C@H](Nc1ncnc2[nH]cnc12)c1nc2cccc(F)c2c(=O)n1-c1ccccc1 [CAL-101, IDELALISIB, Idelalisib], “CI (combination index)” value 0.67. Against it:
- Cc1ccc(Nc2nccc(N(C)c3ccc4c(C)n(C)nc4c3)n2)cc1S(N)(=O)=O [Pazopanib] — lower, 0.57
- O=C(CCCCCCNC(=O)c1cnc(N(c2ccccc2)c2ccccc2)nc1)NO [Ricolinostat, ACY-1215, Ricolinostat] — higher, 0.69
- CS(=O)(=O)N1CCN(Cc2cc3nc(-c4cccc5[nH]ncc45)nc(N4CCOCC4)c3s2)CC1 [GDC-0941, Pictilisib] — higher, 0.85
- CC(C)[C@H](O)C(=O)N[C@@H](C)C(=O)N[C@@H]1C(=O)N(C)CCc2ccccc21 [Semagacestat] — lower, 0.53
- NC1(c2ccc(-c3nc4ccn5c(=O)[nH]nc5c4cc3-c3ccccc3)cc2)CCC1 [MK-2206] — lower, 0.64
- C[C@]12CC[C@@H]3c4ccc(O)cc4C[C@@H](CCCCCCCCC[S+]([O-])CCCC(F)(F)C(F)(F)F)[C@H]3[C@@H]1CC[C@@H]2O (some centres unmarked) [Fulvestrant] — lower, 0.60
- Cc1nc(NC(=O)N2CCC[C@H]2C(N)=O)sc1-c1ccnc(C(C)(C)C(F)(F)F)c1 [BYL-719, Alpelisib] — lower, 0.59
- C#Cc1cccc(Nc2ncnc3cc(OCCOC)c(OCCOC)cc23)c1 [ERLOTINIB, Erlotinib] — lower, 0.62
- CCN(CC)C(=S)SSC(=S)N(CC)CC [Disulfiram] — the same, 0.67
- CN(NC(=O)CC(=O)NN(C)C(=S)c1ccccc1)C(=S)c1ccccc1 [ELESCLOMOL, Elesclomol] — higher, 0.78
